This passage reports IC50 results from BindingDB's records for doi:10.1021/jm00006a008 (Glaxo Research Institute, 1995).

A value given as a limit tells only on which side of the number the result lay.

Experiment [1] is described as follows: Inhibition of bovine topoisomerase I, using cleavable complex assay.
Experiment [2] in a line: Inhibitory concentration against topoisomerase I obtained from calf thymus.

One may read the IC50 as the concentration needed to halve the response being measured. In experiment [1], `CCC1(O)C(=O)OCc2c1cc1n(c2=O)C/C(=C2\C(=O)N(C)c3ccccc32)C1=O` (stereo unspecified) [4-Ethyl-4-hydroxy-7-[1-methyl-2-oxo-1,2-dihydro-indol-(3E)-ylidene]-1,4,7,8-tetrahydro-pyrano[3,4-f]indolizine-3,6,10-trione] came in with an IC50 greater than 100 µM.
`CCC1(O)C(=O)OCc2c1cc1n(c2=O)C/C(=C2\C(=O)Nc3ccccc32)C1=O` (stereo unspecified) [4-Ethyl-4-hydroxy-7-[2-oxo-1,2-dihydro-indol-(3E)-ylidene]-1,4,7,8-tetrahydro-pyrano[3,4-f]indolizine-3,6,10-trione] came in with an IC50 in experiment [1] of 5.8 µM.
In experiment [1], `CCC1(O)C(=O)OCc2c1cc1n(c2=O)C/C(=C2\C(=O)Nc3c2cc(F)c(F)c3F)C1=O` (stereo unspecified) [4-Ethyl-4-hydroxy-7-[5,6,7-trifluoro-2-oxo-1,2-dihydro-indol-(3E)-ylidene]-1,4,7,8-tetrahydro-pyrano[3,4-f]indolizine-3,6,10-trione] came in with an IC50 greater than 100 µM.
With `CCC1(O)C(=O)OCc2c1cc1n(c2=O)C/C(=C2\C(=O)Nc3ccc(I)cc32)C1=O` (stereo unspecified) [4-Ethyl-4-hydroxy-7-[5-iodo-2-oxo-1,2-dihydro-indol-(3E)-ylidene]-1,4,7,8-tetrahydro-pyrano[3,4-f]indolizine-3,6,10-trione], inhibition in experiment [1] was half-maximal at 32 µM (IC50).
In experiment [1], `CCC1(O)C(=O)OCc2c1cc1n(c2=O)C/C(=C2\C(=O)Nc3ccc([N+](=O)[O-])cc32)C1=O` (stereo unspecified) [4-Ethyl-4-hydroxy-7-[5-nitro-2-oxo-1,2-dihydro-indol-(3E)-ylidene]-1,4,7,8-tetrahydro-pyrano[3,4-f]indolizine-3,6,10-trione] came in with a half-maximal inhibitory concentration (IC50) greater than 100 µM.
On the same count and under the same terms, in the case of `CCC1(O)C(=O)OCc2c1cc1n(c2=O)C/C(=C2\C(=O)Nc3cc(OC)ccc32)C1=O` (stereo unspecified) [4-Ethyl-4-hydroxy-7-[6-methoxy-2-oxo-1,2-dihydro-indol-(3E)-ylidene]-1,4,7,8-tetrahydro-pyrano[3,4-f]indolizine-3,6,10-trione] it was greater than 100 µM; in that of `CCC1(O)C(=O)OCc2c1cc1n(c2=O)C/C(=C2\C(=O)Nc3cc4c(cc32)OCCO4)C1=O` (stereo unspecified) [4-Ethyl-4-hydroxy-7-[7-oxo-2,3,6,7-tetrahydro-[1,4]dioxino[2,3-f]indol-(8E)-ylidene]-1,4,7,8-tetrahydro-pyrano[3,4-f]indolizine-3,6,10-trione], 29.6 µM.
In the case of `CCC1(O)C(=O)OCc2c1cc1n(c2=O)Cc2c-1nc1ccc(I)cc1c2C(=O)O` (stereo unspecified) [4-Ethyl-4-hydroxy-9-iodo-3,13-dioxo-3,4,12,13-tetrahydro-1H-2-oxa-6,12a-diaza-dibenzo[b,h]fluorene-11-carboxylic acid], in experiment [2], it took 2.3 µM to reach half-maximal inhibition (IC50).
As to `CCC1(O)C(=O)OCc2c1cc1n(c2=O)Cc2c-1nc1cccc(I)c1c2C(=O)O` (stereo unspecified) [4-Ethyl-4-hydroxy-10-iodo-3,13-dioxo-3,4,12,13-tetrahydro-1H-2-oxa-6,12a-diaza-dibenzo[b,h]fluorene-11-carboxylic acid], the IC50 in experiment [2] was 1.3 µM.
Consider `CCC1(O)C(=O)OCc2c1cc1n(c2=O)C/C(=C2\C(=O)Nc3ccc(F)cc32)C1=O` (stereo unspecified) [4-Ethyl-7-[5-fluoro-2-oxo-1,2-dihydro-indol-(3E)-ylidene]-4-hydroxy-1,4,7,8-tetrahydro-pyrano[3,4-f]indolizine-3,6,10-trione], for which the IC50 in experiment [1] was determined as 1.2 µM.
With `CCC1(O)C(=O)OCc2c1cc1n(c2=O)C/C(=C2\C(=O)Nc3c2ccc(F)c3C)C1=O` (stereo unspecified) [4-Ethyl-7-[6-fluoro-7-methyl-2-oxo-1,2-dihydro-indol-(3E)-ylidene]-4-hydroxy-1,4,7,8-tetrahydro-pyrano[3,4-f]indolizine-3,6,10-trione], the IC50 in experiment [1] was greater than 100 µM.
Consider `CCC1(O)C(=O)OCc2c1cc1n(c2=O)Cc2c-1nc1cc(F)c(F)cc1c2C(=O)O` (stereo unspecified) [4-Ethyl-8,9-difluoro-4-hydroxy-3,13-dioxo-3,4,12,13-tetrahydro-1H-2-oxa-6,12a-diaza-dibenzo[b,h]fluorene-11-carboxylic acid], for which the IC50 in experiment [2] was 1.5 µM.
Turning to `CCC1(O)C(=O)OCc2c1cc1n(c2=O)Cc2c-1nc1ccc(F)cc1c2C(=O)O` (stereo unspecified) [4-Ethyl-9-fluoro-4-hydroxy-3,13-dioxo-3,4,12,13-tetrahydro-1H-2-oxa-6,12a-diaza-dibenzo[b,h]fluorene-11-carboxylic acid], in experiment [2], inhibition was half-maximal at 3.2 µM (IC50).
Turning to `CCC1(O)C(=O)OCc2c1cc1n(c2=O)C/C(=C2\C(=O)Nc3cc(F)c(F)cc32)C1=O` (stereo unspecified) [7-[5,6-Difluoro-2-oxo-1,2-dihydro-indol-(3E)-ylidene]-4-ethyl-4-hydroxy-1,4,7,8-tetrahydro-pyrano[3,4-f]indolizine-3,6,10-trione], the IC50 in experiment [1] amounted to 1.5 µM.
`CCC1(O)C(=O)OCc2c1cc1n(c2=O)C/C(=C2\C(=O)Nc3ccc(Cl)cc32)C1=O` (stereo unspecified) [7-[5-Chloro-2-oxo-1,2-dihydro-indol-(3E)-ylidene]-4-ethyl-4-hydroxy-1,4,7,8-tetrahydro-pyrano[3,4-f]indolizine-3,6,10-trione] displayed an IC50 in experiment [1] greater than 100 µM.
With `CCC1(O)C(=O)OCc2c1cc1n(c2=O)Cc2c-1nc1cc3c(cc1c2C(=O)O)OCCO3` (stereo unspecified) [8-ethyl-8-hydroxy-9,12-dioxo-2,3,8,9,12,14-hexahydro-11H-[1,4]dioxino[2,3-g]pyrano[3',4':6,7]indolizino[1,2-b]quinoline-15-carboxylic acid], in experiment [2], the IC50 was found to be 24.1 µM.
In turn, `CC[C@]1(O)C(=O)OCc2c1cc1n(c2=O)Cc2c-1nc1ccccc1c2C(=O)O` [(R)-4-Ethyl-4-hydroxy-3,13-dioxo-3,4,12,13-tetrahydro-1H-2-oxa-6,12a-diaza-dibenzo[b,h]fluorene-11-carboxylic acid] registered an IC50 in experiment [2] of 2.1 µM.
The compound `CC[C@]1(O)C(=O)OCc2c1cc1n(c2=O)C/C(=C2\C(=O)Nc3ccccc32)C1=O` [(R)-4-Ethyl-4-hydroxy-7-[2-oxo-1,2-dihydro-indol-(3E)-ylidene]-1,4,7,8-tetrahydro-pyrano[3,4-f]indolizine-3,6,10-trione] returned an IC50 in experiment [1] of 4 µM.
`CC[C@]1(O)C(=O)OCc2c1cc1n(c2=O)C/C(=C2\C(=O)Nc3cc(OC(F)(F)F)ccc32)C1=O` [(R)-4-Ethyl-4-hydroxy-7-[2-oxo-6-trifluoromethoxy-1,2-dihydro-indol-(3E)-ylidene]-1,4,7,8-tetrahydro-pyrano[3,4-f]indolizine-3,6,10-trione] displayed an IC50 in experiment [1] greater than 100 µM.
`CC[C@]1(O)C(=O)OCc2c1cc1n(c2=O)C/C(=C2\C(=O)Nc3ccc(I)cc32)C1=O` [(R)-4-Ethyl-4-hydroxy-7-[5-iodo-2-oxo-1,2-dihydro-indol-(3E)-ylidene]-1,4,7,8-tetrahydro-pyrano[3,4-f]indolizine-3,6,10-trione] came in with an IC50 in experiment [1] of 12.1 µM.
Consider `CC[C@]1(O)C(=O)OCc2c1cc1n(c2=O)C/C(=C2\C(=O)Nc3ccc(C)cc32)C1=O` [(R)-4-Ethyl-4-hydroxy-7-[5-methyl-2-oxo-1,2-dihydro-indol-(3E)-ylidene]-1,4,7,8-tetrahydro-pyrano[3,4-f]indolizine-3,6,10-trione], for which, in experiment [1], 1.8 µM corresponded to half-maximal inhibition (IC50).
Regarding `CC[C@]1(O)C(=O)OCc2c1cc1n(c2=O)C/C(=C2\C(=O)Nc3c2cc(C)cc3[N+](=O)[O-])C1=O` [(R)-4-Ethyl-4-hydroxy-7-[5-methyl-7-nitro-2-oxo-1,2-dihydro-indol-(3E)-ylidene]-1,4,7,8-tetrahydro-pyrano[3,4-f]indolizine-3,6,10-trione], the IC50 in experiment [1] was greater than 100 µM.
Still for that read-out and setting: in the case of `CC[C@]1(O)C(=O)OCc2c1cc1n(c2=O)C/C(=C2\C(=O)Nc3cc(SC)ccc32)C1=O` [(R)-4-Ethyl-4-hydroxy-7-[6-methylsulfanyl-2-oxo-1,2-dihydro-indol-(3E)-ylidene]-1,4,7,8-tetrahydro-pyrano[3,4-f]indolizine-3,6,10-trione] it was greater than 100 µM; in that of `CC[C@]1(O)C(=O)OCc2c1cc1n(c2=O)C/C(=C2\C(=O)Nc3c(C)cccc32)C1=O` [(R)-4-Ethyl-4-hydroxy-7-[7-methyl-2-oxo-1,2-dihydro-indol-(3E)-ylidene]-1,4,7,8-tetrahydro-pyrano[3,4-f]indolizine-3,6,10-trione], greater than 100 µM.
`CC[C@]1(O)C(=O)OCc2c1cc1n(c2=O)Cc2c-1nc1ccc(C)cc1c2C(=O)O` [(R)-4-Ethyl-4-hydroxy-9-methyl-3,13-dioxo-3,4,12,13-tetrahydro-1H-2-oxa-6,12a-diaza-dibenzo[b,h]fluorene-11-carboxylic acid] had an IC50 in experiment [2] of 1.9 µM.
In turn, `CC[C@]1(O)C(=O)OCc2c1cc1n(c2=O)C/C(=C2\C(=O)Nc3ccc(F)cc32)C1=O` [(R)-4-Ethyl-7-[5-fluoro-2-oxo-1,2-dihydro-indol-(3E)-ylidene]-4-hydroxy-1,4,7,8-tetrahydro-pyrano[3,4-f]indolizine-3,6,10-trione] yielded an IC50 in experiment [1] of 1.1 µM.
`CC[C@]1(O)C(=O)OCc2c1cc1n(c2=O)C/C(=C2\C(=O)Nc3cc(F)c(F)cc32)C1=O` [(R)-7-[5,6-Difluoro-2-oxo-1,2-dihydro-indol-(3E)-ylidene]-4-ethyl-4-hydroxy-1,4,7,8-tetrahydro-pyrano[3,4-f]indolizine-3,6,10-trione] returned an IC50 in experiment [1] of 1.3 µM.
In experiment [1], `CC[C@]1(O)C(=O)OCc2c1cc1n(c2=O)C/C(=C2\C(=O)Nc3ccc(Br)cc32)C1=O` [(R)-7-[5-Bromo-2-oxo-1,2-dihydro-indol-(3E)-ylidene]-4-ethyl-4-hydroxy-1,4,7,8-tetrahydro-pyrano[3,4-f]indolizine-3,6,10-trione] displayed an IC50 greater than 100 µM.
Compound `CC[C@]1(O)C(=O)OCc2c1cc1n(c2=O)C/C(=C2\C(=O)Nc3c(Cl)cccc32)C1=O` [(R)-7-[7-Chloro-2-oxo-1,2-dihydro-indol-(3E)-ylidene]-4-ethyl-4-hydroxy-1,4,7,8-tetrahydro-pyrano[3,4-f]indolizine-3,6,10-trione] came in with an IC50 in experiment [1] greater than 100 µM.
Turning to `CC[C@@]1(O)C(=O)OCc2c1cc1n(c2=O)C/C(=C2\C(=O)Nc3ccccc32)C1=O` [(S)-4-Ethyl-4-hydroxy-7-[2-oxo-1,2-dihydro-indol-(3E)-ylidene]-1,4,7,8-tetrahydro-pyrano[3,4-f]indolizine-3,6,10-trione], in experiment [1], the IC50 was greater than 100 µM.
Still for that read-out and setting: the result for `CC[C@@]1(O)C(=O)OCc2c1cc1n(c2=O)C/C(=C2\C(=O)Nc3ccc(F)cc32)C1=O` [(S)-4-Ethyl-7-[5-fluoro-2-oxo-1,2-dihydro-indol-(3E)-ylidene]-4-hydroxy-1,4,7,8-tetrahydro-pyrano[3,4-f]indolizine-3,6,10-trione] reads greater than 100 µM.
